Calls of active or inactive are those of the source. The calls are words filed in the database; no cut-off is given here.
Legend:
[1] = test system: HepG2; experiment: Antiproliferative activity against human HepG2 cells assessed as reduction in cell viability at 250 ug/ml by MTT assay relative to control; type: functional; details: dose 250 µg/ml
[2] = test system: SGC-7901; experiment: Antiproliferative activity against human SGC-7901 cells assessed as reduction in cell viability at 250 ug/ml by MTT assay relative to control; type: functional; details: dose 250 µg/ml
[3] = molecular target: T1, Urease subunit alpha/Urease subunit beta (Helicobacter pylori (strain ATCC 700392 / 26695) (Campylobacterpylori), UniProt P69996); experiment: Inhibition of Helicobacter pylori urease; type: protein-complex assay
T1 sequence (P69996 whole entry): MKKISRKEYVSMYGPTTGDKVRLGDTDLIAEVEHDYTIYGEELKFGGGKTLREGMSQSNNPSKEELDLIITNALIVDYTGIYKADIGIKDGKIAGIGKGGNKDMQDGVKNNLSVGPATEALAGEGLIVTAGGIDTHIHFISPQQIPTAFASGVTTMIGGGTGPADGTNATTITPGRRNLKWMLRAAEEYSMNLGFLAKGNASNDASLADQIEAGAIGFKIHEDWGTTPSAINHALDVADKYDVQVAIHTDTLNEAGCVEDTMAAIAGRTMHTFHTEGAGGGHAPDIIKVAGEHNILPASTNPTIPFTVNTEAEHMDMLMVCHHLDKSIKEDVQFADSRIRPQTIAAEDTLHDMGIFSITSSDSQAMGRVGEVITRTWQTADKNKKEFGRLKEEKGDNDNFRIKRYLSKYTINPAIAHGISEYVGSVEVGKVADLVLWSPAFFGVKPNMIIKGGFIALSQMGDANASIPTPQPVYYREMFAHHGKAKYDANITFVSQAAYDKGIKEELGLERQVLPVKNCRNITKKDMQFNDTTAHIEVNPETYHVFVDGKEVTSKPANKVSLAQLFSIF
T1 sequence (P14916 whole entry, further chain): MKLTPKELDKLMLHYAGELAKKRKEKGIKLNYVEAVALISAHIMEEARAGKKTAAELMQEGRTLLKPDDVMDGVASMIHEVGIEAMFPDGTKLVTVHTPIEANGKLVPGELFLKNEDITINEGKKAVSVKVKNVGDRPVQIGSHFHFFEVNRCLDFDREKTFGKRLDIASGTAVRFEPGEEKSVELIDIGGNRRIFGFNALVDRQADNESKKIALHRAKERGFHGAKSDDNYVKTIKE

[4] = test system: K562; experiment: Antiproliferative activity against human K562 cells assessed as reduction in cell viability at 250 ug/ml by MTT assay relative to control; type: functional; details: dose 250 µg/ml
[5] = molecular target: T1, Urease subunit alpha/Urease subunit beta; experiment: Mixed type inhibition of Helicobacter pyroli urease assessed as dissociation constant for EI complex by microplate reader analysis; type: protein-complex assay
[6] = molecular target: T2, Urease subunit alpha/Urease subunit beta (Helicobacter pylori (strain ATCC 700392 / 26695) (Campylobacterpylori)) (UniProt P69996+P14916); experiment: Inhibition of Helicobacter pyroli urease at 100 ug/ml […]; type: protein-complex assay; details: dose 100.0 µg/ml, time <= 120.0 min, TDE = time-dependent effect
T2 sequence (P14916 whole entry, looked up): as the sequence (P14916 whole entry, further chain) above
T2 sequence (P69996 whole entry, looked up): as the sequence (P69996 whole entry) above

[7] = molecular target: T2, Urease subunit alpha/Urease subunit beta (Helicobacter pylori (strain ATCC 700392 / 26695) (Campylobacterpylori)); experiment: Potency index, ratio of acetohydroxamic acid IC50 to test compound IC50 for inhibition of Helicobacter pylori urease; type: protein-complex assay
[8] = molecular target: T1, Urease subunit alpha/Urease subunit beta; experiment: Mixed type inhibition of Helicobacter pyroli urease assessed as dissociation constant for ESI complex by microplate reader analysis; type: protein-complex assay
[9] = molecular target: T1, Urease subunit alpha/Urease subunit beta; experiment: Binding affinity to Helicobacter pyroli urease assessed as dissociation constant by surface plasmon resonance assay; type: protein-complex assay
[10] = molecular target: T2, Urease subunit alpha/Urease subunit beta (Helicobacter pylori (strain ATCC 700392 / 26695) (Campylobacterpylori)); experiment: Inhibition of Helicobacter pyroli urease assessed as maximum inhibition at 100 ug/ml measured after 50 mins […]; type: protein-complex assay; details: dose 100.0 µg/ml

| Compound | Activity [1] | Activity [2] | IC50 [3] | Activity [4] | Ki [5] | inhibition [6] | Ratio IC50 [7] | Ki [8] | Kd [9] | inhibition [10] |
| --- | --- | --- | --- | --- | --- | --- | --- | --- | --- | --- |
| Cc1cc(C)c(S(=O)(=O)N(CC(=O)NO)c2cccc([N+](=O)[O-])c2)c(C)c1 | 87% | 85% | 96.4 µM | 94% |  |  |  |  |  |  |
| O=C(CN(c1cccc([N+](=O)[O-])c1)S(=O)(=O)c1ccc(Cl)cc1)NO | 86% | 89% | 1.75 µM | 88% |  |  |  |  |  |  |
| O=C(CN(c1cccc([N+](=O)[O-])c1)S(=O)(=O)c1ccc(C(F)(F)F)cc1)NO | 93% | 90% | 9.57 µM | 87% |  |  |  |  |  |  |
| O=C(CN(c1cccc([N+](=O)[O-])c1)S(=O)(=O)c1ccccc1Cl)NO | 93% | 90% | 22 µM | 91% |  |  |  |  |  |  |
| O=C(CN(c1cccc([N+](=O)[O-])c1)S(=O)(=O)c1ccc(F)cc1)NO | 91% | 90% | 3.33 µM | 92% |  |  |  |  |  |  |
| Cc1ccccc1S(=O)(=O)N(CC(=O)NO)c1cccc([N+](=O)[O-])c1 | 87% | 90% | 7.1 µM | 90% |  |  |  |  |  |  |
| O=C(CN(c1cccc([N+](=O)[O-])c1)S(=O)(=O)c1ccccc1)NO | 83% | 79% | 2.41 µM | 76% |  |  |  |  |  |  |
| O=C(CN(c1cccc([N+](=O)[O-])c1)S(=O)(=O)c1cc(F)ccc1F)NO | 89% | 92% | 16.4 µM | 88% |  |  |  |  |  |  |
| Cc1ccc(S(=O)(=O)N(CC(=O)NO)c2cccc([N+](=O)[O-])c2)cc1 | 80% | 84% | 5.91 µM | 86% |  |  |  |  |  |  |
| O=C(CN(c1cccc([N+](=O)[O-])c1)S(=O)(=O)c1cc(Cl)ccc1Cl)NO | 80% | 81% | 27.5 µM | 84% |  |  |  |  |  |  |
| CC(=O)NO [ACETOHYDROXAMIC ACID] | 76% | 72% | 26.3 µM | 64% |  |  |  |  |  |  |
| O=C(CN(c1cccc([N+](=O)[O-])c1)S(=O)(=O)c1ccc(Br)cc1)NO | 91% | 86% | 0.13 µM | 87% | 65 nM | Tde | 200 | 1200 nM | 0.34 nM | Active |
| O=C(CN(c1cccc([N+](=O)[O-])c1)S(=O)(=O)c1cccc(F)c1)NO | 89% | 90% | 0.74 µM | 93% |  |  | 35 |  |  |  |
| O=C(CN(c1cccc([N+](=O)[O-])c1)S(=O)(=O)c1ccccc1F)NO | 80% | 92% | 6.9 µM | 87% |  |  |  |  |  |  |

Reference: ChEMBL document CHEMBL5150033, “Synthesis, evaluation and mechanism exploration of 2-(N-(3-nitrophenyl)-N-phenylsulfonyl)aminoacetohydroxamic acids as novel urease inhibitors” (Bioorg Med Chem Lett, 2022)
